Reference: patent publication US11802107B2, “Compounds and methods of use” (Signum Biosciences, Inc., priority 2017, dated 2023)
Blank lines part the entries; values can stand above or below the compound they belong to.

Columns and labels:
IL-17 = test: P. acnes-induced IL-17 protein on human PBMCs (ELISA); assay type: cell-based; conditions: PBMC, PBMCs + live P. acnes 1:1, test material 30 PM, 24 hours
Protocol: (§1) Cryopreserved human Peripheral Blood Mononuclear cells (PBMCs) from healthy adult donors were obtained from Zen Bio, Inc (Cat No. SER-PBMC-F). Cells were cultured in 12-well plates with lymphocyte media (Cat No. LYMPH-1) and incubated with test materials ([…]) and live P. acnes (ATCC® 6919TM) at 1:1 PBMC: P. acnes bacteria ratio for 24 hours at 37° C. and 5% CO2. After incubation, cell media supernatants were harvested and used to measure pro-inflammatory cytokine levels (IL-8, TNF-α, IL-1b, IL-17) using ELISA kits (BD Biosciences® #557966, #555212, #555244; R&D Systems® #DY317). Total RNA was extracted from cells using the RNAqueous® kit (Ambion®; Cat No. 1912) and cDNA was obtained using the High Capacity RNA-to-cDNA kit (Applied Biosystems®; Cat No. 4387406). Quantitative PCR (qPCR) was performed using the TaqMan® Fast Advanced Master Mix (Applied Biosystems®; Cat No. 4444556) and specific TaqMan®-probes human gene primers CXCL8 (IL-8), IL1B (IL-1b), TNF (TNF-α), IL17A (IL-17A) and GAPDH to calculate the relative gene fold expression change per treatment. Gene expression analysis was performed using the comparative Ct method (also known as the 2-[delta][delta]Ct) approach by comparing the Ct values of P. acnes-only treated cells with the untreated samples and normalized to GAPDH gene expression as endogenous housekeeping gene.

IL-4 = test: T-cell receptor (anti-CD3/CD28)-induced IL-4 on PBMCs; assay type: cell-based; conditions: Homo sapiens, PBMC, anti-CD3/CD28 beads, 24 hours, ELISA, read-out: TCR-PBMCs IL-4 Protein IC50
Protocol: (§2) Cryopreserved human Peripheral Blood Mononuclear cells (PBMCs) from healthy adult donors were obtained from Zen Bio, Inc (Cat No. SER-PBMC-F). Cells were cultured in 96-well plates with lymphocyte media (Cat No. LYMPH-1) and were pre-treated with test materials (≤100 μM) for 2 hours and later co-treated with test materials and anti-CD3/CD28 beads (Thermo-Fisher; Cat No. 11131D) at 1:0.4 PBMC:bead ratio for 24 hours at 37° C. and 5% CO2. After incubation, cell media supernatants were harvested and used to measure cytokine levels (IL-4, IL-5, IL-10) using ELISA kits (BD Biosciences® #555194, #555157; R&D Systems® #DY317). Results were represented as percent of inhibition relative to untreated and anti-CD3/CD28 beads-only treated cells. IC50 values were determined by non-linear regression analysis using the four-parameter logistic equation.

IL-8 = test: TPA-induced IL-8 on NHEKs; assay type: cell-based; conditions: Homo sapiens; NHEK, TPA 5 ng/mL, 24 hours, ELISA
Protocol: Normal human epidermal keratinocytes (NHEKs) from neonatal donors were obtained from Thermo-Fisher (Cat No. C-001-5C). Cells were cultured in 96-well plates for 24 hours with EpiLife media (Cat No. MEPI500CA) supplemented with keratinocytes growth supplement (Cat No. S0015). On Day 2, media was removed and replaced with supplement-depleted medium for 24 hours. On Day 3, media was removed and cells were pre-treated with test materials (≤1 μM) for 2 hours and later co-treated with test materials and TPA (Sigma Aldrich, Cat No. P8139) at 5 ng/mL and incubated for 24 hours at 37° C. and 5% CO2. After incubation, cell media supernatants were harvested and used to measure pro-inflammatory cytokine levels (IL-8) using ELISA kit (BD Biosciences® #555244). Results were represented as percent of inhibition relative to untreated and TPA-only treated cells. IC50 values were determined by non-linear regression analysis using the four-parameter logistic equation.

[1] = test system: P. acnes (ATCC 6919) biofilms; test: P. acnes biofilm eradication (MBEC), crystal violet; assay type: cell-based, Propionibacterium acnes; conditions: 24 hours, ≥80% eradication vs vehicle
Protocol: P. acnes (ATCC® 6919™) was cultured as described above. Bacteria biofilms were established by seeding P. acnes cultures in 96-well plates and incubating for 24 hours without agitation. Later, biofilms were incubated with test materials for 24 hours. Remaining biofilms were washed and stained with crystal violet. […] The absorbance was measured at 595 nm in a microplate reader. […] Results from disk diffusion susceptibility testing (Kirby-Bauer Method) after 72 hours incubation were also obtained.

IL-10 = test: T-cell receptor (anti-CD3/CD28)-induced IL-10 on PBMCs; assay type: cell-based; conditions: Homo sapiens, PBMC, anti-CD3/CD28 beads, 24 hours, ELISA, read-out: TCR-PBMCs IL-10 Protein IC50
Protocol: as §2

Balb/C mice = test: Oxazolone-induced delayed-type hypersensitivity (DTH) in vivo model
Summary of the method: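 Male Balb/C mice (8-10 weeks) sensitized with 3% oxazolone on dorsal skin, ear-challenged on day 7 with 0.5%; test materials at 3% w/v topically to both ear surfaces 30 min post-challenge in 60:40 H2O:EtOH. Ear edema and IL-4 ELISA of 6-mm biopsies at 24 h; % inhibition, n=5-15/group.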

CXCL8 (IL-8) = test: P. acnes-induced IL-8 gene on human PBMCs (qPCR); assay type: cell-based; conditions: PBMC, PBMCs + live P. acnes 1:1, test material 30 PM, 24 hours
Protocol: as §1

[2] = Mus musculus, topical to ears @ 3% w/v, 24 hours, read-out: Edema % inhibition
[3] = topical to ears @ 3% w/v, 24 hours, ear biopsy ELISA

Compound: C/C(=C\CSCC(NC(=O)NCC(=O)O)C(=O)O)CCCC(C)CCCC(C)CCCC(C)C (stereo not drawn) [A]
inhibition at 30 pM (IL-17): 32%
IC50 (IL-4): > 100 µM
IC50 (IL-10): 42 µM
inhibition in vivo at 3 % strength (Balb/C mice; [2]): 44%

Compound: C/C(=C\CSC[C@H](NC(=O)N1CCC[C@H]1C(=O)O)C(=O)O)CCCC(C)CCCC(C)CCCC(C)C (stereo partly drawn) [Compound E]
inhibition at 30 pM (IL-17): 23%
IC50 (IL-4): 42 µM
MBEC [1]: 12 μg/mL and (21) μM
IC50 (IL-10): 39 µM
inhibition in vivo at 3 % strength (Balb/C mice; [2]): 51%
Edema (% inhibition) (Balb/C mice; dose 0.6 Mg/ear, average±S.E.): 22%
Edema (% inhibition) (Balb/C mice; dose 1 Mg/ear, average±S.E.): 51 ± 9%
inhibition at 30 pM (CXCL8 (IL-8)): 8%

Compound: C/C(=C\CSCC(NC(=O)N(CC(=O)O)CC(=O)O)C(=O)O)CCCC(C)CCCC(C)CCCC(C)C (stereo not drawn) [Compound G]
inhibition at 30 pM (IL-17): 29%
MBEC [1]: 7 μg/mL and (11) μM
inhibition in vivo at 3 % strength (Balb/C mice; [2]): 41%
Edema (% inhibition) (Balb/C mice; dose 0.6 Mg/ear, average±S.E.): 41%
inhibition at 30 pM (CXCL8 (IL-8)): 0%

Compound: C/C(=C\CSC[C@H](NC(=O)COCC(=O)O)C(=O)O)CCCC(C)CCCC(C)CCCC(C)C (stereo partly drawn) [Compound T]
IC50 (IL-4): 25 µM
IC50 (IL-8): 0.03 µM
IC50 (IL-10): 19 µM
inhibition in vivo at 3 % strength (Balb/C mice; [2]): 31%
Edema (% inhibition) (Balb/C mice; dose 0.2 Mg/ear, average±S.E.): 20 ± 4%
MPO (% inhibition) (Balb/C mice; dose 0.2 Mg/ear, average±S.E.): 30 ± 14%
Edema (% inhibition) (Balb/C mice; dose 0.6 Mg/ear, average±S.E.): 31 ± 6%
MPO (% inhibition) (Balb/C mice; dose 0.6 Mg/ear, average±S.E.): 41 ± 18%
Edema (% inhibition) (Balb/C mice; dose 1 Mg/ear, average±S.E.): 53 ± 8%
MPO (% inhibition) (Balb/C mice; dose 1 Mg/ear, average±S.E.): 71 ± 3%
IL-4 (% inhibition) (Balb/C mice; [3]): 53%
inhibition at 30 pM (CXCL8 (IL-8)): 0%

Now from value to compound, other results behind:

IC50 (IL-4): 20 µM
IC50 (IL-8): 0.02 µM
IC50 (IL-10): 34 µM
Compound: C/C(=C\CSC[C@H](NC(=O)N(C)CC(=O)O)C(=O)O)CCCC(C)CCCC(C)CCCC(C)C (stereo partly drawn) [Compound C, (2R)-2-{[(carboxymethyl)(methyl)carbamoyl]amino}-3-{[(2E)-3,7,11,15-tetramethylhexadec-2-en-1-yl]sulfanyl}propanoic acid]
inhibition at 30 pM (IL-17): 0%
MBEC [1]: 9 µg/mL
inhibition in vivo at 3 % strength (Balb/C mice; [2]): 53%
Edema (% inhibition) (Balb/C mice; dose 0.2 Mg/ear, average±S.E.): 23 ± 4%
IL-4 (% inhibition) (Balb/C mice; dose 0.2 Mg/ear, average±S.E.): 33 ± 9%
MPO (% inhibition) (Balb/C mice; dose 0.2 Mg/ear, average±S.E.): 22 ± 9%
Edema (% inhibition) (Balb/C mice; dose 0.6 Mg/ear, average±S.E.): 53 ± 5%
IL-4 (% inhibition) (Balb/C mice; dose 0.6 Mg/ear, average±S.E.): 41 ± 10%
MPO (% inhibition) (Balb/C mice; dose 0.6 Mg/ear, average±S.E.): 67 ± 23%
Edema (% inhibition) (Balb/C mice; dose 1 Mg/ear, average±S.E.): 72 ± 4%
IL-4 (% inhibition) (Balb/C mice; dose 1 Mg/ear, average±S.E.): 62 ± 11%
MPO (% inhibition) (Balb/C mice; dose 1 Mg/ear, average±S.E.): 81 ± 5%
IL-4 (% inhibition) (Balb/C mice; [3]): 41%
inhibition at 30 pM (CXCL8 (IL-8)): 0%

IC50 (IL-4): 2 µM
IC50 (IL-8): 0.02 µM
IC50 (IL-10): 9 µM
Compound: N#Cc1ccc(Oc2ccc3c(c2)COB3O)cc1 [AN2728, reference compound]
inhibition in vivo at 2 % (Balb/C mice; Mus musculus, topical @2%, 24 hours, read-out: Edema % inhibition): 0%
Edema (% inhibition) (Balb/C mice; dose 0.4 Mg/ear, average±S.E.): 17 ± 5%
IL-4 (% inhibition) (Balb/C mice; dose 0.4 Mg/ear, average±S.E.): 76 ± 9%
MPO (% inhibition) (Balb/C mice; dose 0.4 Mg/ear, average±S.E.): 36 ± 12%
IL-4 (% inhibition) (Balb/C mice; topical @2%, 24 hours): 76 (@2%)
